# Reference: PubChem BioAssay AID463089 (NMMLSC, 2010)
# Active and inactive are the calls of the source.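 Rule for the calls: active = compound whose binding-signal loss grows with dose, reaching half its maximum below 10 micromolar; inactive = the rest.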
# Columns and labels:
# [1] = modulators of MEKK2-MEK5 PB1 interaction, dose response, biochemical, TR-FRET, Eu and Cy5 interference panels (AID 463089); conditions: TR-FRET MEKK2-MEK5 PB1 binding; for response (panel-specific, % change): at 30 µM (top of the series)
# [2] = molecular target: Mitogen-activated protein kinase kinase kinase 2 (Homo sapiens) (UniProt Q9Y2U5); experiment: as above; conditions: TR-FRET MEKK2-MEK5 PB1 binding, TR-FRET binding assay; for response (panel-specific, % change): at 30 µM (top of the series)
# Mitogen-activated protein kinase kinase kinase 2 (Homo sapiens), sequence (Q9Y2U5 whole entry, looked up): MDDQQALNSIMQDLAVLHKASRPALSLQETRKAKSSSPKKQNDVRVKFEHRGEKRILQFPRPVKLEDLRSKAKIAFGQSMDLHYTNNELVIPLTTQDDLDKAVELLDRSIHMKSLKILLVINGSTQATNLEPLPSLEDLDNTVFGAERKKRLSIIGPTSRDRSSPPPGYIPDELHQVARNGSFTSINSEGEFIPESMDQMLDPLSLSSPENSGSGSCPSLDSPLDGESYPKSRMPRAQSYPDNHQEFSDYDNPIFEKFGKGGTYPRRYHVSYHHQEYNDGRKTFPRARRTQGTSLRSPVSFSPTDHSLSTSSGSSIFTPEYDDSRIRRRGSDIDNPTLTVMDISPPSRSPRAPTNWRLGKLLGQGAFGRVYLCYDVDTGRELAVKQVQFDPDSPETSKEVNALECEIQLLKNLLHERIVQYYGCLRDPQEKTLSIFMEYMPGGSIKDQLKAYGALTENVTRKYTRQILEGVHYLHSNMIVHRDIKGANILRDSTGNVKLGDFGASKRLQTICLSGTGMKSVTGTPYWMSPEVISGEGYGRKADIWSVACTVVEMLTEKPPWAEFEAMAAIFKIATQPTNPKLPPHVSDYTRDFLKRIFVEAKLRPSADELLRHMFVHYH
# [3] = Cy5 fluorescence 665 nm counterscreen
# [4] = Eu fluorescence 620 nm counterscreen
Structure (SMILES),"response (panel-specific, % change) [1, 3]","EC50 [1, 4] [nM]",EC50 [2] [nM],"response (panel-specific, % change) [1, 4]","response (panel-specific, % change) [2]","EC50 [1, 3] [nM]"
CCNc1ccc2noc3c2c1C(=O)c1ccccc1-3,inactive,1600,3500,–,–,–
CN1CCN(c2ccc(NC(=O)c3ccc(-c4ccc(Cl)cc4)o3)cc2)CC1,inactive,–,–,inactive,–,–
CCN1/C(=C/C(C)=C/c2sc3ccccc3[n+]2CC)Sc2ccccc21,inactive,2000,–,–,inactive,–
CCC(=C/c1sc2ccc3ccccc3c2[n+]1C)/C=C1\Sc2ccc3ccccc3c2N1C,–,1900,–,–,inactive,4100
Nc1cc2nc[nH]c2cc1N,inactive,1500,2000,–,–,–
COc1cccc(OC)c1-c1nn2c(-c3cc(-c4ccccc4)n[nH]3)nnc2s1,inactive,–,2200,inactive,–,–
